Measurements reported in ChEMBL document CHEMBL1255230, “Chemical inhibitor of nonapoptotic cell death with therapeutic potential for ischemic brain injury” (Nat Chem Biol, 2005).
Activity calls are given as the source filed them. The calls are words filed in the database; no cut-off is given here.

Columns and labels:
[1] = Inhibition of death receptor signaling mediated apoptosis in human Jurkat cell assessed as cytoprotection after 30 hrs by in presence of FasL, CHX and zVAD.fmk; type: cell-based
[2] = Inhibition of death receptor signaling mediated necroptotic cell death in human Jurkat cell deficient in FADD assessed as cytoprotection after 30 hrs by in presence of TNFalpha; type: cell-based
[3] = Inhibition of death receptor signaling mediated necroptotic cell death in mouse 3T3 cells assessed as cell viability after 24 hrs by ATP based viability assay in presence of TNFalpha and zVAD-fmk; settings: NIH3T3
[4] = Inhibition of death receptor signaling mediated necroptotic cell death in mouse 3T3 cells assessed as decreased levels of PE-conjugated autophagy marker LC3-II after 24 hrs by Western blot method in presence of TNFalpha and zVAD-fmk; type: cell-based; settings: NIH3T3
[5] = Inhibition of death receptor signaling mediated necroptotic cell death in mouse 3T3 cells assessed as decreased levels of PE-conjugated autophagy marker LC3-II after 24 hrs by Western blot method in presence of rapamycin; type: cell-based; settings: NIH3T3
[6] = Inhibition of death receptor signaling mediated necroptotic cell death in human Jurkat cells deficient in FADD and expressing FKBP12-based dimerization domain assessed as cell viability after 48 hrs by FACS in presence of AP1510, zVAD-fmk
[7] = Inhibition of death receptor signaling mediated necroptotic cell death in human Jurkat cells deficient in FADD and expressing FKBP12-based dimerization domain assessed as cell viability after 48 hrs by FACS in presence of AP1510
[8] = Inhibition of death receptor signaling mediated necroptotic cell death in human Jurkat cells deficient in FADD and expressing RIP kinase assessed as cell viability after 48 hrs by FACS in presence of AP1510; type: cell-based
[9] = Inhibition of death receptor signaling mediated necrotic cell death in human Jurkat cell expressing FADD fused to FKBP12-based dimerization domain (JK-FF)assessed as cell viability after 48 hrs by ATP based viability assay in presence of AP20187 and zVAD.fmk
[10] = Inhibition of death receptor signaling mediated necrotic cell death in SV40 transformed mouse MEF cells assessed as cell viability after 16 hrs by ATP based viability assay in presence of TNFalpha, CHX and zVAD.fmk
[11] = Inhibition of death receptor signaling mediated necrotic cell death in mouse L929 cells assessed as cell viability after 24 hrs by ATP based viability assay in presence of TNFalpha
[12] = Inhibition of death receptor signaling mediated necroptotic cell death in human Jurkat cell deficient in FADD assessed as changes in cell size after 24 hrs by forward and side scatter FACS analysis in presence of TNFalpha; type: cell-based
[13] = Inhibition of death receptor signaling mediated necroptotic cell death in human Jurkat cell deficient in FADD assessed as inhibition of plasma membrane permeability after 24 hrs by in presence of TNFalpha; type: cell-based
[14] = Inhibition of death receptor signaling mediated apoptosis in human Jurkat cell assessed as inhibition of plasma membrane permeability after 24 hrs by in presence of FasL, CHX and zVAD.fmk; type: cell-based
[15] = Inhibition of death receptor signaling mediated apoptosis in human Jurkat cell assessed as inhibition of mitochondrial dysfunction after 24 hrs by in presence of FasL, CHX and zVAD.fmk; type: cell-based
Jurkat [16] = test: Effect on apoptosis in human Jurkat cell assessed as cytoplasm condensation by electron microscopy in presence of FasL and CHX; type: functional, cell-based
Jurkat [17] = test: Effect on apoptosis in human Jurkat cell assessed as chromatin marginalization by electron microscopy in presence of FasL and CHX; type: functional, cell-based
Jurkat [18] = test: Inhibition of necrosis in human Jurkat cells assessed as organelle swelling by bright field microscopy in presence of FasL, CHX and zVAD-fmk; type: functional, cell-based
Jurkat [19] = test: Inhibition of necrosis in human Jurkat cells assessed as early loss of plasma membrane integrity by bright field microscopy in presence of FasL, CHX and zVAD-fmk; type: functional, cell-based
Jurkat [20] = test: Inhibition of necrosis in human Jurkat cells assessed as appearance of translucent cytosol in presence of FasL, CHX and zVAD-fmk; type: functional, cell-based
[21] = Inhibition of death receptor signaling mediated necroptotic cell death in human Jurkat cells deficient in FADD and expressing RIP K45M mutant assessed as cell viability after 48 hrs by FACS in presence of AP1510; type: cell-based
[22] = Inhibition of death receptor signaling mediated necroptotic cell death in human Jurkat cells deficient in FADD and expressing RIP kinase domain assessed as cell viability after 48 hrs by FACS in presence of AP1510; type: cell-based
Mus musculus = test: Inhibition of necroptosis in icv dosed mouse middle cerebral artery occlusion induced ischemic injury model assessed as reduction of infarct volume; type: functional, organism-based
Jurkat [23] = test: Effect on changes in cell size in human Jurkat cells; type: functional, cell-based
Jurkat [24] = test: Effect on cell cycle in human Jurkat cells assessed as cells in S phase; type: functional, cell-based
Jurkat [25] = test: increase in intracellular ROS level in human Jurkat cells; type: functional, cell-based
NIH3T3 [26] = test: Effect on actin cytoskeleton in mouse 3T3 cells after 24 hrs by phalloidin-TRITC staining in presence of TNFalpha and zVAD-fmk; type: functional, cell-based
NIH3T3 [27] = test: Effect on morphology of endoplasmic reticulum in mouse 3T3 cells after 24 hrs by anti-KDEL immunofluorescence in presence of TNFalpha and zVAD-fmk; type: functional, cell-based
NIH3T3 [28] = test: Effect on morphology of mitochondria in mouse 3T3 cells after 24 hrs by anti-cytochrome c immunofluorescence in presence of TNFalpha and zVAD-fmk; type: functional, cell-based
Jurkat [29] = test: Effect on cell cycle in human Jurkat cells deficient in FADD assessed as cells in G2/M phase relative to control; type: functional
Jurkat [30] = test: Effect on cell cycle in human Jurkat cells deficient in FADD assessed as cells in G2/M phase in presence of TNFalpha relative to control; type: functional

Q: For `CN1C(=O)C(Cc2c[nH]c3ccccc23)NC1=S` (stereo unspecified) [NECROSTATIN], which inhibition [1] is on record?
A: inactive

Q: What about the inhibition [2] of the same compound?
A: Active

Q: And the inhibition [3]?
A: Active

Q: What about the inhibition [4] of the same compound?
A: Active

Q: What about the inhibition [5] of the same compound?
A: Active

Q: And the inhibition [6]?
A: Active

Q: And the inhibition [7]?
A: Active

Q: What about the inhibition [8] of the same compound?
A: Active

Q: What about the inhibition [9] of the same compound?
A: Active

Q: What about the inhibition [10] of the same compound?
A: Active

Q: And the inhibition [11]?
A: Active

Q: What about the inhibition [12] of the same compound?
A: Active

Q: What about the inhibition [13] of the same compound?
A: Active

Q: What about the inhibition [14] of the same compound?
A: Active

Q: And the inhibition [15]?
A: Active

Q: And the Activity (Jurkat [16])?
A: inactive

Q: What about the Activity (Jurkat [17]) of the same compound?
A: inactive

Q: And the inhibition (Jurkat [18])?
A: Active

Q: What about the inhibition (Jurkat [19]) of the same compound?
A: Active

Q: And the inhibition (Jurkat [20])?
A: Active

Q: And the inhibition [21]?
A: Active

Q: And the inhibition [22]?
A: Active

Q: And the inhibition (Mus musculus)?
A: Active

Q: And the Activity (Jurkat [23])?
A: inactive

Q: And the Activity (Jurkat [24])?
A: inactive

Q: And the Activity (Jurkat [25])?
A: inactive

Q: What about the Activity (NIH3T3 [26]) of the same compound?
A: inactive

Q: What about the Activity (NIH3T3 [27]) of the same compound?
A: inactive

Q: And the Activity (NIH3T3 [28])?
A: inactive

Q: And the Activity (Jurkat [29])?
A: 13.5%

Q: What about the Activity (Jurkat [30]) of the same compound?
A: 12.1%
